Data set [1] in a line: Wheel box test (NACE publication ID182), corrosion of carbon steel coupons in CO2-saturated brine/oil. To be noted: for corrosion inhibitor performance (in words): wheel box test. The source says:
To determine the efficacy of the compositions as corrosion inhibitors, a wheel box test was used. It is a testing methodology from NACE publication ID182. The method is used to assess the degree of protection afforded to a metal surface that is in contact with water laden with carbon dioxide (C02). The wheel box test is a test that is often used in the field for comparative corrosion inhibitor performance tests. The standard test conditions used in the performance test are in Table 1.
A continuous wheel box test procedure was used to compare the performance of the corrosion inhibitor formulations of the invention in mitigating the corrosion of carbon steel in solutions saturated with carbon dioxide. Into a set of bottles containing the desired brine and oil mixtures, Table 1, clean and pre-weighed coupons were immersed. The solution was purged with carbon dioxide, after which the solutions were dosed with the various concentrations of the formulations. After purging the headspace with carbon dioxide, the bottles were immediately capped to prevent aerial exposure.
Blanks, comprising bottles of untreated mixtures, were used to determine the baseline corrosion rate under the test conditions. The bottles were placed on a rotating wheel under incubation at 80° C. for a period of 24 hours. Following the completion of the incubation, the bottles were retrieved and left to cooled to room temperature. The coupons were removed from the test solutions, cleaned, dried, sandblasted and re-weighed. By comparing the mass loss of the coupons immersed in treated solutions versus the mass loss for coupons placed in untreated solutions, the corrosion rate and protection efficiency were calculated.

The nature of data set [2]: Physical stability / water solubility of the inhibitor formulation (observation). The class given is physicochemical. To be noted: for physical stability of the formulation: 418.4 mM solution in water.
The mark [3] stands for this setting: 5 ppm of Corrosion Inhibitor, low dosage comparison, method of Example 4.
Where [4] appears, read: 10 ppm of Corrosion Inhibitor, low dosage comparison, method of Example 4.
The mark [5] stands for this setting: 25 ppm of Corrosion Inhibitor, low dosage comparison, method of Example 4.
[6] abbreviates: 50 ppm of Corrosion Inhibitor, low dosage comparison, method of Example 4.
Setting [7] is: 5000 ppm inhibitor, 80° C., 24 hours, CO2 saturated, 80% ASTM Seawater brine / 20% LVT-200.
Setting [8] is: 20000 ppm inhibitor, 80° C., 24 hours, CO2 saturated, 80% ASTM Seawater brine / 20% LVT-200.
Where [9] appears, read: 50000 ppm inhibitor, 80° C., 24 hours, CO2 saturated, 80% ASTM Seawater brine / 20% LVT-200.

The structures appear in SMILES notation. Where “and” joins values, the source holds several entries; their conditions need not be identical. Equal values may be shown once. Entries after “also recorded” stand apart in the source; their conditions may differ.

In the case of `CCCCCCCC/C=C\CCCCCCCC1=NCCN1CCN` [Comparative Formulation, Acetate, reference compound], the “% Protection” value is 14% in data set [1] (setting [3]); 24% in data set [1] (setting [4]); 42% in data set [1] (setting [5]); 55% in data set [1] (setting [6]); 88% and 89% in data set [1] (500 ppm inhibitor, 80° C., 24 hours, CO2 saturated, 80% ASTM Seawater brine / 20% LVT-200, Acetate); 89% and 90% in data set [1] (1000 ppm inhibitor, 80° C., 24 hours, CO2 saturated, 80% ASTM Seawater brine / 20% LVT-200, Acetate). Also, the “% Protection” value is 90% and 89% in data set [1] (2000 ppm inhibitor, 80° C., 24 hours, CO2 saturated, 80% ASTM Seawater brine / 20% LVT-200, Acetate); 89% in data set [1] (setting [7]); 89% and 90% in data set [1] (10000 ppm inhibitor, 80° C., 24 hours, CO2 saturated, 80% ASTM Seawater brine / 20% LVT-200, Acetate); 89% in data set [1] (setting [8]); 90% in data set [1] (setting [9]). The compound also gave an average protection efficiency in data set [1] (average of Table 3 (500-50000 ppm)) of 89%. In addition, the “corrosion inhibitor performance (in words)” value in data set [1] was “robust even at low treatment doses”. Further, the “physical stability of the formulation” value in data set [2] was “physically unstable”.
Regarding `CC(=O)O.CCCCCCCC/C=C\CCCCCCCC1=NCCN1CCNC1OC(CO)C(O)C(O)C1O` (stereo not shown) [Formula 1, (Z)-2-((2-(2-(heptadec-8-en-1-yl)-4,5-dihydro-1H-imidazol-1-yl)ethyl)amino)-6-(hydroxymethyl)tetrahydro-2H-pyran-3,4,5-triol acetate salt], the “% Protection” value is 22% in data set [1] (setting [3]); 32% in data set [1] (setting [4]); 54% in data set [1] (setting [5]); 63% in data set [1] (setting [6]); 95% in data set [1] (500 ppm inhibitor, 80° C., 24 hours, CO2 saturated, 80% ASTM Seawater brine / 20% LVT-200); 93% and 94% in data set [1] (1000 ppm inhibitor, 80° C., 24 hours, CO2 saturated, 80% ASTM Seawater brine / 20% LVT-200, listed as Formulation 1, acetate salt). In addition, the “% Protection” value in data set [1] (2000 ppm inhibitor, 80° C., 24 hours, CO2 saturated, 80% ASTM Seawater brine / 20% LVT-200, listed as Formulation 1, acetate salt) was 93% and 94%; in data set [1] (setting [7]), 94%; in data set [1] (10000 ppm inhibitor, 80° C., 24 hours, CO2 saturated, 80% ASTM Seawater brine / 20% LVT-200, listed as Formulation 1, acetate salt), 95% and 94%; in data set [1] (20000 ppm inhibitor, 80° C., 24 hours, CO2 saturated, 80% ASTM Seawater brine / 20% LVT-200, listed as Formulation 1, acetate salt), 96% and 95%; in data set [1] (50000 ppm inhibitor, 80° C., 24 hours, CO2 saturated, 80% ASTM Seawater brine / 20% LVT-200, listed as Formulation 1, acetate salt) it was 95% and 94%. In data set [1], the “corrosion inhibitor performance (in words)” value is “perform significantly better than the comparative sample even at low dosage rates”.
On to `CC(=O)[O-].CCCCCCCC/C=C\CCCCCCCC1=[N+](CC(O)c2ccccc2)CCN1CCNC1OC(CO)C(O)C(O)C1O` (stereo not shown) [Formula 2, (Z)-2-(heptadec-8-en-1-yl)-3-(2-hydroxy-2-phenylethyl)-1-(2-((3,4,5-trihydroxy-6-(hydroxymethyl)tetrahydro-2H-pyran-2-yl)amino)ethyl)-4,5-dihydro-1H-imidazol-3-ium acetate salt], for which the “% Protection” value was 28% in data set [1] (setting [3]); 36% in data set [1] (setting [4]); 57% in data set [1] (setting [5]); 73% in data set [1] (setting [6]); 91% and 92% in data set [1] (500 ppm inhibitor, 80° C., 24 hours, CO2 saturated, 80% ASTM Seawater brine / 20% LVT-200, listed as Formulation 2, acetate salt); 92% in data set [1] (1000 ppm inhibitor, 80° C., 24 hours, CO2 saturated, 80% ASTM Seawater brine / 20% LVT-200). The “% Protection” value in data set [1] (2000 ppm inhibitor, 80° C., 24 hours, CO2 saturated, 80% ASTM Seawater brine / 20% LVT-200, listed as Formulation 2, acetate salt) is 91% and 92%; in data set [1] (5000 ppm inhibitor, 80° C., 24 hours, CO2 saturated, 80% ASTM Seawater brine / 20% LVT-200, listed as Formulation 2, acetate salt), 92% and 93%; in data set [1] (10000 ppm inhibitor, 80° C., 24 hours, CO2 saturated, 80% ASTM Seawater brine / 20% LVT-200, listed as Formulation 2, acetate salt), 93% and 94%; in data set [1] (setting [8]), 94%; in data set [1] (setting [9]), 94%. Moreover, the “corrosion inhibitor performance (in words)” value in data set [1] (acetate salt) was “greatly improved corrosion inhibitor performance even at low dosages; also recorded: highly effective; also recorded: perform significantly better than the comparative sample even at low dosage rates”. The solubility in water result in data set [2] is “high solubility in water”. The “physical stability of the formulation” value in data set [2] was “physically stable”.

For the origin of these results see US20250369124A1, “IMIDAZOLINE-SUGAR CONJUGATE COMPOSITIONS AND METHODS FOR INHIBITING CORROSION” (Ecolab USA Inc., priority 2024, published 2025).
